Assay results from patent US20050101595A1, “N-containing cycloalkyl-substituted amino-thiazole derivatives and pharmaceutical compositions for inhibiting cell proliferation and methods for their use” (PFIZER INC., priority 2003, published 2005).
Counter-ions that a name gives are not always drawn. Like-named read-outs stand apart in the source and are kept apart here.

Key:
[1] = molecular target: CDK2/Cyclin A (Homo sapiens, UniProt P24941); assay: Inhibition of CDK2/Cyclin A Retinoblastoma Kinase Activity; format: biochemical; conditions: apparent Ki, CDK2/proteolyzed cyclin A, Rb fragment substrate, 25 μM ATP
How it was run: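 Percent inhibition is calculated against DMSO-only wells after subtracting no-enzyme background. The enzyme is human CDK2 complexed with proteolyzed cyclin A, used at 10 nM or 19 nM on an Rb fragment with 25 μM [32/33P]ATP, at pH 7.4 and 30° C.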

[2] = system: HCT-116 cell line; assay: Inhibition of cell growth, tetrazolium salt (MTT) assay; format: cell-based; conditions: Homo sapiens, HCT-116, 120 h, MTT, three to five days, read-out: HCT-116 IC50
How it was run: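 Cells in McCoy's 5A medium were left 4 h, then given graded compound concentrations in 0.5% (v/v) DMSO and incubated three to five days at 37° C (5% CO2). MTT was added to 0.2 mg/mL for 4 h more; DMSO-solubilized formazan was read at 540 nm against 0.5% DMSO-only controls.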

[3] = molecular target: human CDK4 and genetically truncated (1-264) cyclin D3 (Homo sapiens, UniProt P11802); assay: Inhibition of CDK4/Cyclin D Retinoblastoma Kinase Activity; format: biochemical; conditions: apparent Ki, CDK4/truncated cyclin D3, Rb fragment substrate, 25 μM ATP
How it was run: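 Apparent Ki values derive from fitting activity at varied inhibitor concentrations to a competitive (or competitive tight-binding) model. Kinase reactions used 5 nM CDK4/cyclin D3(1-264), Rb fragment substrate and 25 μM ATP. Incubation ran 20 min at 30 °C, extended to 60 min under linear conditions for tight binders.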

Chain of human CDK4 and genetically truncated (1-264) cyclin D3 (P11802 whole entry, the tested form may be a part): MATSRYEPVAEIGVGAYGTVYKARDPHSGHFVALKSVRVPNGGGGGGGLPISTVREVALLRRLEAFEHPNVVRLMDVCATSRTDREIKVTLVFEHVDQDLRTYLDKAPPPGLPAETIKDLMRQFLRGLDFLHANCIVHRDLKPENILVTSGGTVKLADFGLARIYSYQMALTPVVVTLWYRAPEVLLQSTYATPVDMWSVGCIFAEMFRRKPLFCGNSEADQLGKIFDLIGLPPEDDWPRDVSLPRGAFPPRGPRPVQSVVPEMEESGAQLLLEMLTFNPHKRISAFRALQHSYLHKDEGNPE
Chain of human CDK4 and genetically truncated (1-264) cyclin D3 (P30281 1-264 partner): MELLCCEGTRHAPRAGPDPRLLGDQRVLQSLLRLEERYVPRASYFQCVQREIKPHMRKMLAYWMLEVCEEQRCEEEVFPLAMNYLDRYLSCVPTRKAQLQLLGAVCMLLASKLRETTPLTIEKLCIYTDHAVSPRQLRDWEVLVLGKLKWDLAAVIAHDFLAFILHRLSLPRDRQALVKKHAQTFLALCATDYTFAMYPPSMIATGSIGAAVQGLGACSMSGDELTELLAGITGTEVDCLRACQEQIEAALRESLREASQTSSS

Ki [1] | IC50 ([2]; first HCT-116 column (c4)) | IC50 ([2]; second HCT-116 column (c5)) | Ki [3] | Structure (SMILES)
100 nM | 7.2 nM | 220 nM | 32 nM | Cc1cc(C(=O)N2CCC(Nc3nc(N)c(C(=O)c4c(F)cccc4F)s3)CC2)ccc1Cl [Example D7, 1-(4-Amino-2-{1-[1-(4-chloro-3-methyl-phenyl)-methanoyl]-piperidin-4-ylamino}-thiazol-5-yl)-1-(2,6-difluoro-phenyl)-methanone]
99 nM | 97 nM | 250 nM | 9.6 nM | Nc1nc(NC2CCN(C(=O)c3ccc(F)c(Cl)c3)CC2)sc1C(=O)c1c(F)cccc1F [Example D8, 1-(4-Amino-2-{1-[1-(3-chloro-4-fluoro-phenyl)-methanoyl]-piperidin-4-ylamino}-thiazol-5-yl)-1-(2,6-difluoro-phenyl)-methanone]
85 nM | 60 nM | 200 nM | 62 nM | Cc1cc(C)cc(CC(=O)N2CCC(Nc3nc(N)c(C(=O)c4c(F)cccc4F)s3)CC2)c1 [Example D10, 1-{4-[4-Amino-5-(2,6-difluoro-benzoyl)-thiazol-2-ylamino]piperidin-1-yl}-2-(3,5-dimethyl-phenyl)-ethanone]
81 nM | 720 nM | 1800 nM | 31 nM | Nc1nc(NC2CCN(C(=O)c3ccc(Br)cc3)CC2)sc1C(=O)c1c(F)cccc1F [Example D11]
29 nM | 120 nM | 320 nM | 14 nM | COc1cc(C(=O)N2CCC(Nc3nc(N)c(C(=O)c4c(F)cccc4F)s3)CC2)ccc1C [Example D12, 1-[4-Amino-2-{1-[-(3-methoxy-4-methyl-phenyl)-methanoyl]-piperidin-4-ylamino}-thiazol-5-yl)-1-(2,6-difluoro-phenyl)-methanone Trifluoroacetic Acid Salt]
24 nM | 1300 nM | 5000 nM | 1.8 nM | N#C/C(=C\c1cccc(O)c1)C(=O)N1CCC(Nc2nc(N)c(C(=O)c3c(F)cccc3F)s2)CC1 [Example D13, 12(Z)-(1-{4-[4-Amino-5-(2,6-difluoro-benzoyl)-thiazol-2-ylamino]-piperidin-1-yl}-methanoyl)-3-(3-hydroxy-phenyl)-acrylonitrile Trifluoroacetic Acid Salt]
120 nM | 14 nM | 41 nM | 19 nM | Cc1cc(C)cc(C(=O)N2CCC(Nc3nc(N)c(C(=O)c4c(F)cccc4F)s3)CC2)c1 [Example D14, {4-Amino-2-[1-(3,5-dimethyl-benzoyl)-piperidin-4-ylamino]-thiazol-5-yl}-(2,6-difluoro-phenyl)-methanone]
170 nM | 50 nM | 170 nM | 27 nM | Cc1ccc(C(=O)N2CCC(Nc3nc(N)c(C(=O)c4c(F)cccc4F)s3)CC2)cc1C [Example D15, {4-Amino-2-[1-(3,4-dimethyl-benzoyl)-piperidin-4-ylamino]-thiazol-5-yl}-(2,6-difluoro-phenyl)-methanone]
69 nM | 57 nM | 160 nM | 18 nM | COc1cc(C(=O)N2CCC(Nc3nc(N)c(C(=O)c4c(F)cccc4F)s3)CC2)cc(OC)c1C [Example D17, {4-Amino-2-[1-(3,5-dimethoxy-4-methyl-benzoyl)-piperidin-4-ylamino]-thiazol-5-yl-}(2,6-difluoro-phenyl)-methanone]
1.2 nM | 680 nM | 1300 nM | 3.9 nM | Nc1nc(NC2CCN(S(=O)(=O)Nc3ccccc3)CC2)sc1C(=O)c1c(F)cccc1F [Example E2, 4-[4-Amino-5-(2,6-difluoro-benzoyl)-thiazol-2-ylamino]-piperidine-1-sulfonic acid phenylamide]
12 nM | 330 nM | 780 nM | 5.4 nM | CN1CCN(S(=O)(=O)N2CCC(Nc3nc(N)c(C(=O)c4c(F)cccc4F)s3)CC2)CC1 [Example E3, {4-Amino-2-[1-(4-methyl-piperazine-1-sulfonyl)-piperidin-4-ylamino]-thiazol-5-yl}-(2,6-difluoro-phenyl)-methanone]
2.7 nM | 570 nM | 1200 nM | 14 nM | Nc1nc(NC2CCN(S(N)(=O)=O)CC2)sc1C(=O)c1c(F)cccc1F [Example E4, 4-[4-Amino-5-(2,6-difluoro-benzoyl)-thiazol-2-ylamino]-piperidine-1-sulfonic acid amide]
38 nM | > 5000 nM | > 5000 nM | 170 nM | CC(C)OC(=O)NS(=O)(=O)N1CCC(Nc2nc(N)c(C(=O)c3c(F)cccc3F)s2)CC1 [Example E5, [1-(4-{4-Amino-5-[1-(2,6-difluoro-phenyl)-methanoyl]-thiazol-2-ylamino}-piperidin-1-yl)-sulfonyl]-carbamic Acid Isopropyl Ester]
12 nM | 1400 nM | 4500 nM | 14 nM | Cc1noc(C)c1S(=O)(=O)N1CCC(Nc2nc(N)c(C(=O)c3c(F)cccc3F)s2)CC1 [Example F1]
< 5 nM | 1300 nM | 4000 nM | 1.9 nM | Cn1cnc(S(=O)(=O)N2CCC(Nc3nc(N)c(C(=O)c4c(F)cccc4F)s3)CC2)c1 [Example F2, 1-{4-Amino-2-[1-(i-methyl-1H-imidazole-4-sulfonyl)-piperidin-4-ylamino]-thiazol-5-yl}-1-(2,6-difluoro-phenyl)-methanone]
2.9 nM | 180 nM | 480 nM | 5.9 nM | CS(=O)(=O)N1CCC(Nc2nc(N)c(C(=O)c3c(F)cccc3F)s2)CC1 [Example F3, 1-[4-Amino-2-(1-methanesulfonyl-piperidin-4-ylamino)-thiazol-5-yl]-1-(2,6-difluoro-phenyl)-methanone]
4.1 nM | 260 nM | 590 nM | 2.8 nM | Nc1nc(NC2CCN(S(=O)(=O)Cc3ccccc3)CC2)sc1C(=O)c1c(F)cccc1F [Example F4, 1-[4-Amino-2-(1-phenylmethanesulfonyl-piperidin-4-ylamino)-thiazol-5-yl]-1-(2,6-difluoro-phenyl)-methanone]
< 1 nM | 500 nM | 1300 nM | 1 nM | CC(=O)Nc1ccc(S(=O)(=O)N2CCC(Nc3nc(N)c(C(=O)c4c(F)cccc4F)s3)CC2)cc1 [Example F5, N-(4-{4-[4-Amino-5-(2,6-difluoro-benzoyl)-thiazol-2-ylamino]-piperidine-1-sulfonyl}-phenyl)-acetamide]
0.43 nM | 170 nM | 450 nM | 0.46 nM | Nc1nc(NC2CCN(S(=O)(=O)c3ccc(-c4ccccn4)s3)CC2)sc1C(=O)c1c(F)cccc1F [Example F6, 1-{4-Amino-2-[1-(5-pyridin-2-yl-thiophene-2-sulfonyl)-piperidin-4-ylamino]-thiazol-5-yl}-1-(2,6-difluoro-phenyl)-methanone]
0.8 nM | 190 nM | 460 nM | 2.5 nM | COc1ccc(S(=O)(=O)N2CCC(Nc3nc(N)c(C(=O)c4c(F)cccc4F)s3)CC2)cc1 [Example F7, 1-{4-Amino-2-[1-(4-methoxy-benzenesulfonyl)-piperidin-4-ylamino]-thiazol-5-yl}-1-(2,6-difluoro-phenyl)-methanone]
